In patent US20050101595A1, “N-containing cycloalkyl-substituted amino-thiazole derivatives and pharmaceutical compositions for inhibiting cell proliferation and methods for their use” (PFIZER INC., priority 2003, published 2005):
Where a name gives a salt, the structure may show the parent alone. Read-outs that look alike come from different tables or passages of the source.

Assays:
CDK2/Cyclin A = CDK2/Cyclin A (Homo sapiens, UniProt P24941); assay: Inhibition of CDK2/Cyclin A Retinoblastoma Kinase Activity; assay type: biochemical; conditions: for Ki: apparent Ki, CDK2/proteolyzed cyclin A, Rb fragment substrate, 25 μM ATP
In short: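 Percent inhibition is calculated against DMSO-only wells after subtracting no-enzyme background. The enzyme is human CDK2 complexed with proteolyzed cyclin A, used at 10 nM or 19 nM on an Rb fragment with 25 μM [32/33P]ATP, at pH 7.4 and 30° C.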

[1] = biological target: human CDK4 and genetically truncated (1-264) cyclin D3 (Homo sapiens, UniProt P11802); assay: Inhibition of CDK4/Cyclin D Retinoblastoma Kinase Activity; assay type: biochemical; conditions: for Ki: apparent Ki, CDK4/truncated cyclin D3, Rb fragment substrate, 25 μM ATP
In short: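 Apparent Ki values derive from fitting activity at varied inhibitor concentrations to a competitive (or competitive tight-binding) model. Kinase reactions used 5 nM CDK4/cyclin D3(1-264), Rb fragment substrate and 25 μM ATP. Incubation ran 20 min at 30 °C, extended to 60 min under linear conditions for tight binders.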

HCT-116 cell line = assay: Inhibition of cell growth, tetrazolium salt (MTT) assay; assay type: cell-based; conditions: for IC50: Homo sapiens, HCT-116, 120 h, MTT, three to five days, read-out: HCT-116 IC50
In short: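 First, cells were seeded in McCoy's 5A medium and held 4 h. Next, inhibitor concentrations in 0.5% (v/v) DMSO were applied for three to five days at 37° C, 5% CO2. Finally, after 4 h with 0.2 mg/mL MTT and medium removal, solubilized formazan was measured at 540 nm.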

Sequence of human CDK4 and genetically truncated (1-264) cyclin D3 (P11802 whole entry, the tested form may be a part): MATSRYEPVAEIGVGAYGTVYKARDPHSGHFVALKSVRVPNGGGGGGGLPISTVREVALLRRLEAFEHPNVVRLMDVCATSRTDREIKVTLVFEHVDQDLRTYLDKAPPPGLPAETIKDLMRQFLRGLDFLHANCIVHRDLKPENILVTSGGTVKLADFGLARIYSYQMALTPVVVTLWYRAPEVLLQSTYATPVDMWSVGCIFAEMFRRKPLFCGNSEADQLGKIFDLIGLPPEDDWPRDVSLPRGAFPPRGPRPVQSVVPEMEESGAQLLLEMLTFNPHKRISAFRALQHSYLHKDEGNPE
Sequence of human CDK4 and genetically truncated (1-264) cyclin D3 (P30281 1-264 partner): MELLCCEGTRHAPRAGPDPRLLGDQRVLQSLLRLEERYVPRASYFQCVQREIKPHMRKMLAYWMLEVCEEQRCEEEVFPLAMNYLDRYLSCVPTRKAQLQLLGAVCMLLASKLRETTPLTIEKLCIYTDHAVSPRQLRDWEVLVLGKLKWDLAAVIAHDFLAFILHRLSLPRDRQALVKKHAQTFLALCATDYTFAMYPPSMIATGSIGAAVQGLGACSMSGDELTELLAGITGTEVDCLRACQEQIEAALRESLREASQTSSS

Work on `Nc1nc(NC2CCN(S(=O)(=O)c3ccc(N4CCC[C@H](CO)C4)nc3)CC2)sc1C(=O)c1c(F)cccc1F` [Example G18] yielded a Ki (CDK2/Cyclin A) of 0.39 nM, a Ki [1] of 0.58 nM and an IC50 (HCT-116 cell line; first HCT-116 column (c4)) of 120 nM. For the same compound, the IC50 (HCT-116 cell line; second HCT-116 column (c5)) was 600 nM and the melting point was > 149 °C (dec.).

With `CN(C)CCCc1ccc(S(=O)(=O)N2CCC(Nc3nc(N)c(C(=O)c4c(F)cccc4F)s3)CC2)cc1` (as salt: salt) [Example I10, 1-(4-Amino-2-{1-[4-(3-dimethylamino-propyl)-benzenesulfonyl]-piperidin-4-ylamino}-thiazol-5-yl)-1-(2,6-difluoro-phenyl)-methanone D-Glucuronic Acid Salt] the melting point was 117 to 120 °C.

`C[C@@H]1CN(c2ccc(S(=O)(=O)N3CCC(Nc4nc(N)c(C(=O)c5c(F)cccc5F)s4)CC3)cc2)C[C@H](C)N1` [Example G29, 1-(4-Amino-2-{1-[4-(3R,5S-dimethyl-piperazin-1-yl)-benzenesulfonyl]-piperidin-4-ylamino}-thiazol-5-yl)-1-(2,6-difluoro-phenyl)-methanone] gave a Ki (CDK2/Cyclin A) of 0.72 nM, a Ki [1] of 0.61 nM and an IC50 (HCT-116 cell line; first HCT-116 column (c4)) of 45 nM. For the same compound, the IC50 (HCT-116 cell line; second HCT-116 column (c5)) was 250 nM.

`CN(C)CCOc1nc(S(=O)(=O)N2CCC(Nc3nc(N)c(C(=O)c4c(F)cccc4F)s3)CC2)cn1C` [Example H25, (4-Amino-2-{1-[2-(2-dimethylamino-ethoxy)-1-methyl-1H-imidazole-4-sulfonyl]-piperidin-4-ylamino}-thiazol-5-yl)-(2,6-difluoro-phenyl)-methanone Hydrochloride Salt] showed a Ki (CDK2/Cyclin A) of 20 nM, a Ki [1] of 83 nM and an IC50 (HCT-116 cell line; first HCT-116 column (c4)) of over 5000 nM. For the same compound, the IC50 (HCT-116 cell line; second HCT-116 column (c5)) was over 5000 nM.

With `CN(C)c1cccc(C(=O)N2CCC(Nc3nc(N)c(C(=O)c4c(F)cccc4F)s3)CC2)c1` [Example R135] the “CDK2 % Inhibition at 0.03 μM” value (CDK2/Cyclin A; at 0.03 μM) was 27%, the “CDK4 % Inhibition at 0.03 μM” value ([1]; at 0.03 μM) was 50% and the “HCT-116 % Inhibition at 0.1 μM” value (HCT-116 cell line; HCT-116 cells, at 0.1 μM) was 0%. The “HCT-116 5 Inhibition at 0.25 μM” value (HCT-116 cell line; HCT-116 cells) was 38.

With `Nc1nc(NC2CCN(S(=O)(=O)c3ccc(-n4ccnc4)nc3)CC2)sc1C(=O)c1c(F)cccc1F` [Example G25, 1-{4-Amino-2-[1-(6-imidazol-1-yl-pyridine-3-sulfonyl)-piperidin-4-ylamino]-thiazol-5-yl}-1-(2,6-difluoro-phenyl)-methanone Trifluoroacetic Acid Salt] the Ki (CDK2/Cyclin A) was 0.27 nM, the Ki [1] was 0.36 nM and the IC50 (HCT-116 cell line; first HCT-116 column (c4)) was 63 nM. It also gave an IC50 (HCT-116 cell line; second HCT-116 column (c5)) of over 500 nM.

Work on `Nc1nc(NC2CCN(S(=O)(=O)c3ccc(NCC(O)CO)nc3)CC2)sc1C(=O)c1c(F)cccc1F` (stereo not drawn) [Example G19, 1-(4-Amino-2-{1-[6-(2,3-dihydroxy-propylamino)-pyridine-3-sulfonyl]-piperidin-4-ylamino}-thiazol-5-yl)-1-(2,6-difluoro-phenyl)-methanone] yielded a Ki (CDK2/Cyclin A) of 2 nM, a Ki [1] of 3.4 nM and an IC50 (HCT-116 cell line; first HCT-116 column (c4)) of 4100 nM. For the same compound, the IC50 (HCT-116 cell line; second HCT-116 column (c5)) was over 5000 nM.

`Nc1nc(NC2CCN(S(=O)(=O)c3ccc(OCCO)nc3)CC2)sc1C(=O)c1c(F)cccc1F` [Example H4, 1-(4-Amino-2-{1-[6-(2-hydroxy-ethoxy)-pyridine-3-sulfonyl]-piperidin-4-ylamino}-thiazol-5-yl)-1-(2,6-difluoro-phenyl)-methanone] gave a Ki (CDK2/Cyclin A) of 0.7 nM, a Ki [1] of 2.5 nM and an IC50 (HCT-116 cell line; first HCT-116 column (c4)) of 100 nM. It also gave an IC50 (HCT-116 cell line; second HCT-116 column (c5)) of 500 nM.

For `Cn1cnc(S(=O)(=O)N2CCC(Nc3nc(N)c(C(=O)c4c(F)cccc4F)s3)CC2)c1` [Example F2, 1-{4-Amino-2-[1-(i-methyl-1H-imidazole-4-sulfonyl)-piperidin-4-ylamino]-thiazol-5-yl}-1-(2,6-difluoro-phenyl)-methanone], the Ki (CDK2/Cyclin A) was under 5 nM, the Ki [1] was 1.9 nM and the IC50 (HCT-116 cell line; first HCT-116 column (c4)) was 1300 nM. The IC50 (HCT-116 cell line; second HCT-116 column (c5)) was 4000 nM.

In the case of `Cc1ccc(Sc2ncccc2C(=O)N2CCC(Nc3nc(N)c(C(=O)c4c(F)cccc4F)s3)CC2)cc1` [Example R42], the “CDK2 % Inhibition at 0.03 μM” value (CDK2/Cyclin A; at 0.03 μM) is reported as 49%, the “CDK4 % Inhibition at 0.03 μM” value ([1]; at 0.03 μM) is reported as 53% and the “HCT-116 % Inhibition at 0.1 μM” value (HCT-116 cell line; HCT-116 cells, at 0.1 μM) is reported as 0%. For the same compound, the “HCT-116 5 Inhibition at 0.25 μM” value (HCT-116 cell line; HCT-116 cells) was 48.

With `CC(C)=CC(=O)N1CCC(Nc2nc(N)c(C(=O)c3c(F)cccc3F)s2)CC1` [Example Q44] the “CDK2 % Inhibition at 0.03 μM” value (CDK2/Cyclin A; 0.03 μM compound, Table 4) was −19%, the “CDK4 % Inhibition at 0.03 μM” value ([1]; 0.03 μM compound, Table 4) was 17% and the “HCT-116 % Inhibition at 0.1 μM” value (HCT-116 cell line; 0.1 μM compound, HCT-116, Table 4) was 0%. For the same compound, the “HCT-116 % Inhibition at 0.25 μM” value (HCT-116 cell line; 0.25 μM compound, HCT-116, Table 4) was 30%.
